Source: patent US20090148850A1, “Methods for identifying modulators of P2RY14” (priority 2007, published 2009)

Legend:
[1] = molecular target: T1, P2RY14 (Homo sapiens, UniProt Q15391); design: host or cells: yeast and HEK-293 cells (Chambers et al., J. Biol. Chem. 275: 10767-10771 (2000)); settings: yeast and mammalian cells, Chambers et al. 2000; cited from earlier work
T1 sequence (Q15391 1-338): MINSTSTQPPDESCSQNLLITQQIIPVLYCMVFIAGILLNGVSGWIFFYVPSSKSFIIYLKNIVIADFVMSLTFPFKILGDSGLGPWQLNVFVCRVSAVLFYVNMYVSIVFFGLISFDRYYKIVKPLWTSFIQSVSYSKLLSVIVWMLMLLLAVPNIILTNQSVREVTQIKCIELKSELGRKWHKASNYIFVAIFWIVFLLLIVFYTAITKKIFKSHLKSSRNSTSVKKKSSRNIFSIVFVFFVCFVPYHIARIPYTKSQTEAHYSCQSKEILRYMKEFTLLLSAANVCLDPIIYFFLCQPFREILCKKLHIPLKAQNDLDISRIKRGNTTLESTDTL

[2] = system: simian (chimpanzee) P2RY14; assay: FLIPR whole cell Ca2+ agonist assay, HEK cells expressing simian (chimpanzee) P2RY14 and Gqi5; format: cell-based
Source text: (§1) Stable HEK clonal cell lines expressing P2RY14 and the chimeric G protein Gqi5 were constructed. The chimeric Gqi5 forces the coupling of P2RY14 through the Gq (calcium) pathway and allows for monitoring of calcium signaling using a calcium binding fluorescent dye and a FLIPR (fluorometric imaging plate reader, MDS Sciex). Vector pCEP4 comprising the chimeric Gqi5 was obtained from Molecular Devices, Sunnyvale, Calif. (Cat. No. RD-PGQI5).
The simian (chimpanzee) P2RY14 nucleic acid fragment was synthesized based upon the Ensembl Gene ID ENSPTRG00000030093 by Bio S & T, Montreal, Quebec, Canada, to be flanked with KpnI and NotI restriction enzyme sites. […] The DNA fragment was digested with KpnI and NotI and then cloned into a pcDEF3 vector previously digested with KpnI and NotI to place the DNA fragment in the proper orientation downstream of the human EF-1a promoter. The nucleic acid encoding the simian P2RY14 was under the control of the human EF-1a promoter.
(§2) Cells were grown in DMEM medium containing 25 mM HEPES, pH 7.4 and 10% FBS, 50 units/ml penicillin/50 μg/ml streptomycin, 2 mM glutamine and 1 mM sodium pyruvate at 37° C. in humidified air containing 5% CO2. Two days post-transfection, cells were grown under selection in the DMEM medium as indicated above and supplemented with 200 μg/ml Hygromycin B and 250 μg/ml geneticin.
(§3) Cells were incubated overnight at 37° C. and 5% CO2 to form a monolayer. On the following day, 30 μl of fluorescent no-wash dye was added to the cell monolayer and the plate was incubated for 60 minutes at 37° C., 5% CO2.
(§4) For agonist assays, 6.12 μl of 10× agonist solution was added to the cell/dye incubation and Ca^2+ signaling was monitored by FLIPR. For antagonist assays, 250 nl of compound in 100% DMSO was added to cell/dye mixture; following a 20 minute incubation at room temperature, 6.12 μl of 10× agonist solution at EC80 in HBSS containing 20 mM Hepes was added to cells and Ca^2+ signaling was monitored by FLIPR. Quantitation of the % stimulation or inhibition of Ca^2+ signaling by agonist or antagonist, respectively, was calculated using the Max-Min fluorescent signal detected.

[3] = molecular target: T2, mouse P2RY14 (Mus musculus, UniProt Q9ESG6); assay: FLIPR whole cell Ca2+ agonist assay, HEK cells expressing mouse P2RY14 and Gqi5; format: cell-based
T2 construct: expressed in transfected cells
T2 sequence (Q9ESG6 1-338): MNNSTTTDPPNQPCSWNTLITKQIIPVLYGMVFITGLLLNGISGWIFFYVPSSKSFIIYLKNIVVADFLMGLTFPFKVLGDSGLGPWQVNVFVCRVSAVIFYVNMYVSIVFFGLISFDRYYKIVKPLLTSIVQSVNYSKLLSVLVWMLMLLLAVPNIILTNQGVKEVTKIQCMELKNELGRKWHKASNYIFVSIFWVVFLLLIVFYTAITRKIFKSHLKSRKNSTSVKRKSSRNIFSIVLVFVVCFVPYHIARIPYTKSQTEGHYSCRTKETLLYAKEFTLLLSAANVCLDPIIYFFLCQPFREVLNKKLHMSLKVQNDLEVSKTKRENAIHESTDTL
Source text: as §1
The nucleic acid encoding the mouse P2RY14 was under the control of the CMV promoter.
as §2, §3, §4

[4] = system: simian (chimpanzee) P2RY14; assay: CellKey System live cell functional assay, simian P2RY14; format: cell-based; settings: HEK cells expressing simian P2RY14 and Gqi5
Procedure: (§5) The Cellkey System™ (MDS Sciex), a novel, live cell, label-free, real-time technology, was used to examine P2RY14 activation following agonist stimulation. The CellKey System™ is based on cellular dielectric spectroscopy (CDS) and monitors changes in impedance of the applied electrical current through the cell monolayer upon receptor activation.
(§6) On the following day, growth medium was removed from the cell monolayer and replaced with 135 μl of HBSS pH 7.4 containing 20 mM Hepes for a 30 minutes pre-incubation period at room temperature. Baseline measurements were made for 5 minutes at 28° C. prior to ligand addition. For agonist assays, 15 μl of 10× agonist diluted in HBSS pH 7.4 containing 20 mM HEPES was added to the cell monolayer simultaneously using the 96 multichannel head from the CellKey™ System. Cellular response was monitored for 10 minutes to assess cellular response after ligand addition.

[5] = molecular target: T2, mouse P2RY14; assay: CellKey System live cell functional assay, mouse P2RY14; format: cell-based; settings: HEK cells expressing mouse P2RY14 and Gqi5
Procedure: as §5, §6

[6] = molecular target: T1, P2RY14; assay: FLIPR whole cell Ca2+ agonist assay, HEK cells expressing human P2RY14 and Gqi5; format: cell-based; design: expressed in transfected cells; settings: for activation of P2RY14 (Ca2+ signaling): HEK cells expressing human P2RY14 and Gqi5, FLIPR
Source text: as §1
The human P2RY14 was PCR amplified from the I.M.A.G.E. clone obtained from Invitrogen, Carlsbad, Calif. […] The codon encoding glutamate at position 54 in the wild-type human P2RY14 was changed to code for lysine. […] The PCR reaction was done in two parts. In the first part, the reaction was 5 cycles at 94° C. for 30 seconds, 65° C. for 30 seconds, and 72° C. for 90 seconds. In the second part, the reaction was 25 cycles at 94° C. for 30 seconds, 70° C. for 30 seconds, 72° C. for 90 seconds. The last cycle was followed by 7 minutes at 72° C. The PCR amplified human P2RY14 was digested with KpnI and NotI and cloned into a pcDNA3.1 (+) vector previously digested with KpnI and NotI to place the DNA fragment in the proper orientation downstream of the CMV promoter. The nucleic acid encoding the human P2RY14 was under the control of the CMV promoter.
as §2, §3, §4

[7] = molecular target: T1, P2RY14; assay: CellKey System live cell functional assay, human P2RY14; format: cell-based; design: expressed in transfected cells; settings: HEK cells expressing human P2RY14 and Gqi5
Procedure: as §5, §6

[8] = system: simian P2RY14; assay: Membrane filtration binding assay, simian P2RY14; design: species or system chimpanzee; settings: HEK cells expressing simian P2RY14, membrane filtration
Procedure: Membrane preparations were made by N2 cavitation using a Parr unit. […] Cell were Dounce homogenized (size B, 10 strokes) and then added to the cavitation unit. Pressure was adjusted to 800 psi and cells were left under pressure for 30 minutes. Broken cells were released drop by drop and spun at 1000 g for 10 minutes. Supernatent was spun at 160,000 g (rotor type 60 Ti, 40000 rpm for 30 min). Pellet was resuspended in 10 mM HEPES/KOH pH 7.4, 1 mM EDTA in ⅕ the original volume, dounce homogenized (size A, 10 strokes), aliquoted, and frozen at −80° C.
Binding assays were performed in 10 mM Hepes pH 7.4 (KOH), 5 mM MnCl2, 5 mM MgCl2 buffer. Membranes (10 μg/well for human P2RY14 and 30 μg/well for simian P2RY14) were incubated with 10 nM [5.6-^3H] Uridine 5′-triphosphate (UTP), ammonium salt from Amersham Biosciences (# TRK412) in presence of compounds diluted in DMSO (2% final in assay), in a total volume of 100 μl. 50 minutes (human P2RY14) or 60 minutes (simian) P2RY14) incubations were performed at room temperature with shaking. […] To examine the stability of [^3H]-UTP in the membrane filtration binding assay, 100 ul aliquots of the reaction mixture were extracted at 2, 10, 20, 40, 60 and 90 minutes with 100 uL of cold 80 mM EDTA solution (pH 8) and 200 uL of cold Acetonitrile. After mixing, proteins were precipitated by centrifugation at 13000 rpm for 10 minutes at 4° C. […] After 0.5 min at 10:90 50 mM KH2PO4/750 mM KH2PO4, a gradient was applied in order to increase to 100% 750 mM KH2PO4 at 5 min, after which this composition was maintained for an additional 3 min. Samples were kept at 4° C. prior to HPLC analysis

[9] = system: HEK cells not expressing P2RY14; assay: FLIPR Ca2+ release in HEK cells not expressing P2RY14 (specificity); format: cell-based

Compound | activation of P2RY14 [1] | activation of P2RY14 (Ca2+ signaling) [2] | activation of P2RY14 (Ca2+ signaling) [3] | P2RY14 signaling (impedance, CellKey) [4] | P2RY14 signaling (impedance, CellKey) [5] | activation of P2RY14 (Ca2+ signaling) [6] | P2RY14 signaling (impedance, CellKey) [7] | specific binding window as radioligand [8] | Ca2+ release in cells not expressing P2RY14 [9] | Ca2+ response as compared to UDP-glucose and UMP ([6]; HEK cells expressing human P2RY14)
Nc1ncnc2c1ncn2[C@@H]1O[C@H](COP(=O)(O)OP(=O)(O)O[C@H]2O[C@H](CO)[C@@H](O)[C@H](O)[C@H]2O)[C@@H](O)[C@H]1O [ADP-glucose] | unable to activate | – | – | – | – | – | – | – | – | –
O=C(O)[C@H]1O[C@H](OP(=O)(O)OP(=O)(O)OC[C@H]2O[C@@H](n3ccc(=O)[nH]c3=O)[C@H](O)[C@@H]2O)[C@H](O)[C@@H](O)[C@@H]1O [UDP-glucuronic acid] | able to activate | activated | activated | mediated signaling | mediated signaling | activated | mediated signaling | – | – | –
O=P(O)(O)OP(=O)(O)OC[C@H]1O[C@@H](n2cnc3c(O)ncnc32)[C@H](O)[C@@H]1O [inosine diphosphate] | – | activated | activated | – | – | activated | – | – | – | –
CC(=O)N[C@H]1[C@@H](OP(=O)(O)OP(=O)(O)OC[C@H]2O[C@@H](n3ccc(=O)[nH]c3=O)[C@H](O)[C@@H]2O)O[C@H](CO)[C@@H](O)[C@@H]1O [UDP-N-acetylglucosamine] | able to activate | activated | activated | mediated signaling | mediated signaling | activated | mediated signaling | – | – | –
[^3H]-UMP | – | – | – | – | – | – | – | no specific binding window | – | –
O=c1ccn([C@@H]2O[C@H](COP(=O)(O)OP(=O)(O)OP(=O)(O)O)[C@@H](O)[C@H]2O)c(=O)[nH]1 [UTP, Uridine 5′-triphosphate] | unable to activate | activated | activated | mediated signaling | mediated signaling | activated | mediated signaling | – | able to stimulate Ca^2+ release in a dose-dependent manner | much larger Ca^2+ response
